Assays:
[1] = biological target: T1, Rat H3 (Rattus norvegicus, UniProt Q9QYN8); experiment: H3 Receptor Binding (Rat), rat brain membranes, N-[3H]-α-methylhistamine; details: rat brain without cerebellum; 0.8 nM N-[3H]-α-methylhistamine; average of results
Procedure: A rat brain without cerebellum (Zivic Laboratories Inc., Pittsburgh, Pa.) was homogenized in 50 mM Tris-HCl/5 mM EDTA and centrifuged at 1,000 rpm for 5 min. The supernatant was removed and recentrifuged at 15,000 rpm for 30 min. Pellets were rehomogenized in 50 mM Tris/5 mM EDTA (pH 7.4). Membranes were incubated with 0.8 nM N—[^3H]-α-methylhistamine plus/minus test compounds for 60 min at 25° C. and harvested by rapid filtration over GF/C glass fiber filters (pretreated with 0.3% polyethylenimine) followed by four washes with buffer. Nonspecific binding was defined in the presence of 100 μM histamine. Inhibitory concentration (responsible for 50% inhibition of maximal effect, IC50) values were determined by a single site curve-fitting program (GraphPad, San Diego, Calif.) and converted to Ki values based on a N—[^3H]-α-methylhistamine dissociation constant (Kd) of 0.8 nM. Data for compounds tested in this assay are presented in Table 2 as an average of the results obtained.
Target sequence in this assay (Q9QYN8 1-397 isoform Q9QYN8-3): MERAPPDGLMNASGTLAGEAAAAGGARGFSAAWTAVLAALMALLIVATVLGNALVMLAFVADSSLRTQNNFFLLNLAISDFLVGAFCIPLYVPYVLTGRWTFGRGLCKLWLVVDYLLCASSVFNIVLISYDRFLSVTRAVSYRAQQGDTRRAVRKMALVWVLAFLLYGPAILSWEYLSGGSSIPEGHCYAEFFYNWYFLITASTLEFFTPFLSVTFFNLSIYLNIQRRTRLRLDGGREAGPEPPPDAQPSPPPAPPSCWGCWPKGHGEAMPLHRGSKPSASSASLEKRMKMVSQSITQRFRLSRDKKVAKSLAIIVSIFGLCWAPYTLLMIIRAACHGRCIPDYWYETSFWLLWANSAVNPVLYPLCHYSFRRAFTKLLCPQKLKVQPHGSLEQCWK

[2] = biological target: T2, human H3 receptor (Homo sapiens, UniProt Q9Y5N1); experiment: Cyclic AMP Accumulation, SK-N-MC reporter cells (human H3); assay type: cell-based; details: SK-N-MC cells expressing reporter construct and human H3 receptor; read-out: Human pA2 (converted)
T2 construct: expressed in transfected cells; host or cells: SK-N-MC cells
T2 sequence (Q9Y5N1 whole entry): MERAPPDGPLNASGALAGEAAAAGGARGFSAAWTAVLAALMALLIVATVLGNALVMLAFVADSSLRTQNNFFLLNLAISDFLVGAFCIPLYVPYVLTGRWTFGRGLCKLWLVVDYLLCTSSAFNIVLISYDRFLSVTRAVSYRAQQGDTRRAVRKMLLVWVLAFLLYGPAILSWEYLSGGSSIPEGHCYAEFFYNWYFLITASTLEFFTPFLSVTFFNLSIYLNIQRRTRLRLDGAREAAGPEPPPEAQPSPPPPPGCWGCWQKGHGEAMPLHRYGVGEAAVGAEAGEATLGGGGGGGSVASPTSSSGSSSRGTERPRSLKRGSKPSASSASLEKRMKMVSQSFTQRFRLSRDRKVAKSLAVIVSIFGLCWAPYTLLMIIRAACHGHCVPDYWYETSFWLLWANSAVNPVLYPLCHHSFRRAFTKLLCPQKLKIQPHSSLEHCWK
Text: (§1) Sublines of SK-N-MC cells were created that expressed a reporter construct and either the human or rat H3 receptor. The pA2 values were obtained as described by Barbier et al. (2004). Data for compounds tested in these assays are presented in Table 3, as an average of the results obtained (NT=not tested).

[3] = biological target: T3, cloned human H3 receptors, stably expressed in SK-N-MC cells (Homo sapiens, UniProt Q9Y5N1); experiment: H3 Receptor Binding (Human); details: average of the results obtained
T3 construct: expressed in transfected cells; host or cells: SK-N-MC cells
T3 sequence (Q9Y5N1 whole entry): as above
Procedure: Binding of compounds to the cloned human H3 receptors, stably expressed in SK-N-MC cells, was performed as described by Barbier, A. J. et al. (Br. J. Pharmacol. 2004, 143(5), 649-661). Data for compounds tested in this assay are presented in Table 1 as an average of the results obtained.

[4] = biological target: T1, Rat H3; experiment: Cyclic AMP Accumulation, SK-N-MC reporter cells (rat H3); assay type: cell-based; parameters: expressed in transfected cells; host or cells: SK-N-MC cells (subline with reporter construct); details: SK-N-MC cells expressing reporter construct and rat H3 receptor; read-out: Rat pA2 (converted)
Text: as §1
Target sequence in this assay (Q9QYN8 whole entry): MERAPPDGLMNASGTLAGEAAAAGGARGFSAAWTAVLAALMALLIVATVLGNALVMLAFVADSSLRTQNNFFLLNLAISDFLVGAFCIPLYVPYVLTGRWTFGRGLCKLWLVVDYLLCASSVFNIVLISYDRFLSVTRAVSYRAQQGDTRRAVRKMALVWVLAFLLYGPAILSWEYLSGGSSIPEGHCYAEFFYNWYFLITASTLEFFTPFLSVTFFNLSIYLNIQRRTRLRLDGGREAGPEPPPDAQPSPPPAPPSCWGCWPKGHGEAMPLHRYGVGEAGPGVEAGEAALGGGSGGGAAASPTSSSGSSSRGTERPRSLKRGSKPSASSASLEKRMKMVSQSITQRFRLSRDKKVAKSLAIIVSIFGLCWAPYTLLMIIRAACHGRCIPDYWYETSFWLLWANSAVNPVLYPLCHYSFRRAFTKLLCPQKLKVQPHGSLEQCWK

SMILES | Ki [1] [nM] | Kb [2] [nM] | Ki [3] [nM] | Kb [4] [nM]
CC(C)N1CCN(C(=O)c2ccc3c(CN4CCOCC4)cn(C)c3c2)CC1 [Example 1, (4-Isopropyl-piperazin-1-yl)-(1-methyl-3-morpholin-4-ylmethyl-1H-indol-6-yl)-methanone] | 98 | 3.72 | 2 | 
Cn1cc(CN2CCOCC2)c2ccc(C(=O)N3CCN(C4CCC4)CC3)cc21 [Example 3, (4-Cyclobutyl-piperazin-1-yl)-(1-methyl-3-morpholin-4-ylmethyl-1H-indol-6-yl)-methanone] |  | 0.501 | 1 | 
CC(C)N1CCN(C(=O)c2ccc3c(CN4CCOCC4)c[nH]c3c2)CC1 [Example 4, (4-Isopropyl-piperazin-1-yl)-(3-morpholin-4-ylmethyl-1H-indol-6-yl)-methanone] | 14 | 0.234 | 1 | 
O=C(c1ccc2c(CN3CCOCC3)c[nH]c2c1)N1CCN(C2CC2)CC1 [Example 5, (4-Cyclopropyl-piperazin-1-yl)-(3-morpholin-4-ylmethyl-1H-indol-6-yl)-methanone] | 28 | 0.537 | 1 | 
O=C(c1ccc2c(CN3CCOCC3)c[nH]c2c1)N1CCN(C2CCC2)CC1 [Example 6, (4-Cyclobutyl-piperazin-1-yl)-(3-morpholin-4-ylmethyl-1H-indol-6-yl)-methanone] |  | 0.155 | 1 | 
CC(C)N1CCCN(C(=O)c2ccc3c(CN4CCOCC4)c[nH]c3c2)CC1 [Example 7, (4-Isopropyl-[1,4]diazepan-1-yl)-(3-morpholin-4-ylmethyl-1H-indol-6-yl)-methanone] | 2 |  | 1 | 2
CC(C)N1CCN(C(=O)c2cccc3c(CN4CCOCC4)c[nH]c23)CC1 [Example 20, (4-Isopropyl-piperazin-1-yl)-(3-morpholin-4-ylmethyl-1H-indol-7-yl)-methanone] |  | 8.13 | 10 | 
O=C(c1cccc2c(CN3CCOCC3)c[nH]c12)N1CCN(C2CCC2)CC1 [Example 21, (4-Cyclobutyl-piperazin-1-yl)-(3-morpholin-4-ylmethyl-1H-indol-7-yl)-methanone] | 19 | 1.1 | 5 | 
O=C(c1cccc2c(CN3CCCCC3)c[nH]c12)N1CCN(C2CCC2)CC1 [Example 23, (4-Cyclobutyl-piperazin-1-yl)-(3-piperidin-1-ylmethyl-1H-indol-7-yl)-methanone] |  | 0.575 | 2 | 
CC(C)N1CCN(C(=O)c2ccc3c(CN4CCCCC4)cn(S(C)(=O)=O)c3c2)CC1 [Example 25, (4-Isopropyl-piperazin-1-yl)-(1-methanesulfonyl-3-piperidin-1-ylmethyl-1H-indol-6-yl)-methanone] |  | 3.09 | 3 | 

The next lines start with the values.

Ki [1] [nM] | Kb [2] [nM] | Ki [3] [nM] | Kb [4] [nM] | SMILES
438 |  | 11 |  | O=C(c1ccc2c(CN3CCN(C4CCC4)CC3)c[nH]c2c1)N1CCCCC1 [Example 29, [3-(4-Cyclobutyl-piperazin-1-ylmethyl)-1H-indol-6-yl]-piperidin-1-yl-methanone]
133 |  | 4 |  | CC(C)N1CCCN(C(=O)c2ccc3[nH]cc(CN4CCCCC4)c3c2)CC1 [Example 34, (4-Isopropyl-[1,4]diazepan-1-yl)-(3-piperidin-1-ylmethyl-1H-indol-5-yl)-methanone]
 | 1.07 | 2 |  | CC(C)N1CCN(C(=O)c2ccc3c(CN4CCCC(CO)C4)c[nH]c3c2)CC1 (stereo not drawn) [Example 44, [3-(3-Hydroxymethyl-piperidin-1-ylmethyl)-1H-indol-6-yl]-(4-isopropyl-piperazin-1-yl)-methanone]
 | 1.82 | 2 |  | CC(C)N1CCN(C(=O)c2ccc3c(CN4CCN(c5ccccc5)CC4)c[nH]c3c2)CC1 [Example 45, (4-Isopropyl-piperazin-1-yl)-[3-(4-phenyl-piperazin-1-ylmethyl)-1H-indol-6-yl]-methanone]
 | 1.17 | 1 |  | CC(C)N1CCN(C(=O)c2ccc3c(CN4CCC(c5ccccc5)CC4)c[nH]c3c2)CC1 [Example 57, (4-Isopropyl-piperazin-1-yl)-[3-(4-phenyl-piperidin-1-ylmethyl)-1H-indol-6-yl]-methanone]
2 |  |  |  | CC(C)N1CCN(C(=O)c2ccc3c(CN4CCCC4)c[nH]c3c2)CC1 [Example 58, (4-Isopropyl-piperazin-1-yl)-(3-pyrrolidin-1-ylmethyl-1H-indol-6-yl)-methanone]
 | 46.8 | 26 | 67.6 | O=C(c1ccc2c(CN3CCN(C4CCCC4)CC3)c[nH]c2c1)N1CCCCCC1 [Example 91, Azepan-1-yl-[3-(4-cyclopentyl-piperazin-1-ylmethyl)-1H-indol-6-yl]-methanone]
228 |  | 17 |  | CC(C)N1CCN(C(=O)c2ccc3scc(CN4CCCCC4)c3c2)CC1 [Example 102, (4-Isopropyl-piperazin-1-yl)-(3-piperidin-1-ylmethyl-benzo[b]thiophen-5-yl)-methanone]
 |  | 215 |  | O=C(c1ccc2scc(C(=O)N3CCCCC3)c2c1)N1CCN(C2CCC2)CC1 [Example 105, [5-(4-Cyclobutyl-piperazine-1-carbonyl)-benzo[b]thiophen-3-yl]-piperidin-1-yl-methanone]
 |  | 70 |  | O=C(c1ccc2c(CN3CCC(N4CCCCC4)CC3)c[nH]c2c1)N1CCC(Cc2ccccc2)CC1 [Example 106, (4-Benzyl-piperidin-1-yl)-(3-[1,4′]bipiperidinyl-1′-ylmethyl-1H-indol-6-yl)-methanone]
 |  | 12 |  | O=C(c1ccc2c(CN3CCN(C4CCC4)CC3)c[nH]c2c1)N1CCC(Cc2ccccc2)CC1 [Example 107, (4-Benzyl-piperidin-1-yl)-[3-(4-cyclobutyl-piperazin-1-ylmethyl)-1H-indol-6-yl]-methanone]
 |  | 16 |  | O=C(c1ccc2c(CN3CCCN(C4CCC4)CC3)c[nH]c2c1)N1CCC(Cc2ccccc2)CC1 [Example 108, (4-Benzyl-piperidin-1-yl)-[3-(4-cyclobutyl-[1,4]diazepan-1-ylmethyl)-1H-indol-6-yl]-methanone]
